For assay [1], the system named is HeLa cells. Kind of assay: [3H]Adenosine uptake functional cellular assay. Format: cell-based. The settings on record: Homo sapiens, HeLa, accumulation of [3H]adenosine into HeLa cells; compound range 10 μM to […]; read-out: Adenosine uptake inhibition IC50. An outline of the steps:
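Inhibition of adenosine uptake was measured in HeLa cells (ATCC CCL-2) by following accumulation of tritiated adenosine. Cells were kept overnight at 37° C. with 5% (v/v) CO2, then switched to 40 μL HBSS plus 5% (v/v) FBS. 20 μL of 500 nM [3H]adenosine was added, and uptake was counted on a Topcount NXT reader.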

Assay [2] addresses T1, BTK enzyme (recombinant full-length BTK, hBTK) (Homo sapiens, UniProt Q06187).
T1 construct: recombinant protein from baculovirus-transfected Sf9 cells: full-length BTK, 6HIS-tag cleaved; 6HIS (cleaved yes); made in house; host or cells: baculovirus-transfected Sf9 cells
Description: BTK enzyme activity assay, LANCE TR-FRET. Format: biochemical. The settings on record: 50 pM hBTK, 2 μM biotin-A5-peptide, 25 μM ATP; 60 min compound & enzyme incubation; read-out: IC50 BTK activity value. (In general: Time-resolved FRET reads energy transfer from a long-lived donor to a nearby acceptor.)

One may read the IC50 as the concentration needed to halve the response being measured.

T1 sequence (Q06187 whole entry): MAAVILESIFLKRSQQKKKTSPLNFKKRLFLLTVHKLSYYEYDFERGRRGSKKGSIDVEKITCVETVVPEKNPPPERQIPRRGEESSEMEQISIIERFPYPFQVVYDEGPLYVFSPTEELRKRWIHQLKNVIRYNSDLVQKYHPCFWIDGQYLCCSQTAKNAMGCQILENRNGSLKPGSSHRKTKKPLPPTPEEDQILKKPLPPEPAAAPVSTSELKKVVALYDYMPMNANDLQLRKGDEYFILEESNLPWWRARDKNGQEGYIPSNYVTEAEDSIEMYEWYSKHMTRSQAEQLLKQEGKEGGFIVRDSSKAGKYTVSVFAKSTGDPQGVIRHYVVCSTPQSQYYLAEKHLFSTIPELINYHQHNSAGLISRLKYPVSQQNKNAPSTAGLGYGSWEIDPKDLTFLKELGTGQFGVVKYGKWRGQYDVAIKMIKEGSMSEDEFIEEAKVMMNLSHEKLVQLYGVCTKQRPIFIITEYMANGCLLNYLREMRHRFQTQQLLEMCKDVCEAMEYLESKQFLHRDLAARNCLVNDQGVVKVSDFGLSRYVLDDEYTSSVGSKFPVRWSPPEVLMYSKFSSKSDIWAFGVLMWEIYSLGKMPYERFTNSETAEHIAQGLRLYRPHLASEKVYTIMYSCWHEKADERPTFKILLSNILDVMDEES

In the case of `Nc1nccn2c([C@@H]3CC[C@H]4CN(C(=O)c5ccncc5)CC(=O)N4C3)nc(-c3ccc(C(=O)Nc4cc(C(F)(F)F)ccn4)cc3)c12` [Example 102, 4-{8-amino-3-[(7R,9aS)-4-oxo-2-(pyridin-4-ylcarbonyl)octahydro-2H-pyrido[1,2-a]pyrazin-7-yl]imidazo[1,5-a]pyrazin-1-yl}-N-[4-(trifluoromethyl)pyridin-2-yl]benzamide], the IC50 in assay [1] amounted to 471 nM; in assay [2] it was 0.21 nM.
Take `COC(=O)c1ccnc(NC(=O)c2ccc(-c3nc([C@@H]4CC[C@H]5CCC(=O)N5C4)n4ccnc(N)c34)cc2)c1` [Example 103, methyl 2-{[(4-{8-amino-3-[(6R,8aS)-3-oxooctahydroindolizin-6-yl]imidazo[1,5-a]pyrazin-1-yl}phenyl)carbonyl]amino}pyridine-4-carboxylate]: the IC50 amounted to 69.3 nM in assay [1] and 0.4 nM in assay [2].
On to `Nc1nccn2c([C@@H]3CC[C@H]4CCC(=O)N4C3)nc(-c3ccc(C(=O)Nc4cc(C(F)(F)F)cnn4)cc3)c12` [Example 104, 4-{8-amino-3-[(6R,8aS)-3-oxooctahydroindolizin-6-yl]imidazo[1,5-a]pyrazin-1-yl}-N-[5-(trifluoromethyl)pyridazin-3-yl]benzamide], for which the IC50 came to 303 nM in assay [1] and 1.2 nM in assay [2].
With `Nc1nccn2c([C@@H]3CC[C@H]4CCC(=O)N4C3)nc(-c3ccc(C(=O)Nc4cc5ccccc5cn4)cc3)c12` [Example 106, 4-{8-amino-3-[(6R,8aS)-3-oxooctahydroindolizin-6-yl]imidazo[1,5-a]pyrazin-1-yl}-N-isoquinolin-3-ylbenzamide], the IC50 was determined as 193 nM in assay [1] and 0.19 nM in assay [2].
In the case of `Nc1nccn2c([C@H]3CN4C(=O)CC[C@@H]4CO3)nc(-c3ccc(C(=O)Nc4cc(C(F)(F)F)ccn4)cc3)c12` [Example 107, 4-{8-amino-3-[(3R,8aR)-6-oxohexahydro-1H-pyrrolo[2,1-c][1,4]oxazin-3-yl]imidazo[1,5-a]pyrazin-1-yl}-N-[4-(trifluoromethyl)pyridin-2-yl]benzamide], the IC50 turned out to be 206 nM in assay [1] and 0.26 nM in assay [2].
For `Nc1nccn2c([C@@H]3CC[C@H]4CN(CC(=O)O)CC(=O)N4C3)nc(-c3ccc(C(=O)Nc4cc(C(F)(F)F)ccn4)cc3)c12` [Example 108, {(7R,9aS)-7-[8-amino-1-(4-{[4-(trifluoromethyl)pyridin-2-yl]carbamoyl}phenyl)imidazo[1,5-a]pyrazin-3-yl]-4-oxooctahydro-2H-pyrido[1,2-a]pyrazin-2-yl}acetic acid] the same measures were 2880 nM and 0.22 nM.
In the same order, the values of `C=C[C@@H]1OC(=O)N2C[C@H](c3nc(-c4ccc(C(=O)Nc5cc(C(F)(F)F)ccn5)cc4)c4c(N)nccn34)CC[C@@H]12` [Example 109, 4-{8-amino-3-[(1S,6R,8aS)-1-ethenyl-3-oxohexahydro[1,3]oxazolo[3,4-a]pyridin-6-yl]imidazo[1,5-a]pyrazin-1-yl}-N-[4-(trifluoromethyl)pyridin-2-yl]benzamide] are 116 nM and 6.3 nM.
For `C=C[C@H]1OC(=O)N2C[C@H](c3nc(-c4ccc(C(=O)Nc5cc(C(F)(F)F)ccn5)cc4)c4c(N)nccn34)CC[C@@H]12` [Example 110, 4-{8-amino-3-[(1R,6R,8aS)-1-ethenyl-3-oxohexahydro[1,3]oxazolo[3,4-a]pyridin-6-yl]imidazo[1,5-a]pyrazin-1-yl}-N-[4-(trifluoromethyl)pyridin-2-yl]benzamide] the same measures were 100 nM and 16.8 nM.
Turning to `CN1CC[C@H]2CC[C@@H](c3nc(-c4ccc(C(=O)Nc5cc(C(F)(F)F)ccn5)cc4)c4c(N)nccn34)CN2C1=O` [Example 111, 4-{8-amino-3-[(4aR,7R)-2-methyl-1-oxooctahydro-1H-pyrido[1,2-c]pyrimidin-7-yl]imidazo[1,5-a]pyrazin-1-yl}-N-[4-(trifluoromethyl)pyridin-2-yl]benzamide], the figures for the half-maximal inhibitory concentration (IC50) in assay [1] and in assay [2] were 458 nM and 5.2 nM, respectively.
In the same order, the values of `Nc1nccn2c([C@@H]3CC[C@H]4CCC(=O)N4C3)nc(-c3ccc(C(=O)Nc4cc(C(F)(F)F)ccn4)cc3Cl)c12` [Example 112, 4-{8-amino-3-[(6R,8aS)-3-oxooctahydroindolizin-6-yl]imidazo[1,5-a]pyrazin-1-yl}-3-chloro-N-[4-(trifluoromethyl)pyridin-2-yl]benzamide] are 415 nM and 0.57 nM.
For `CC(F)(F)c1cc(C(=O)Nc2cc(C(F)(F)F)ccn2)ccc1-c1nc([C@@H]2CC[C@H]3CCC(=O)N3C2)n2ccnc(N)c12` [Example 114, 4-{8-amino-3-[(6R,8aS)-3-oxooctahydroindolizin-6-yl]imidazo[1,5-a]pyrazin-1-yl}-3-(1,1-difluoroethyl)-N-[4-(trifluoromethyl)pyridin-2-yl]benzamide] the same measures were 587 nM and 831 nM.
Take `CCOc1cc(C(=O)Nc2cc(C(F)(F)F)n(C)n2)c(F)cc1-c1nc([C@@H]2CC[C@H]3CCC(=O)N3C2)n2c(Cl)cnc(N)c12` [Example 115, 4-(8-amino-5-chloro-3-((6R,8aS)-3-oxooctahydroindolizin-6-yl)imidazo[1,5-a]pyrazin-1-yl)-5-ethoxy-2-fluoro-N-(1-methyl-5-(trifluoromethyl)-1H-pyrazol-3-yl)benzamide]: the IC50 in assay [1] amounted to 1690 nM; in assay [2], 0.67 nM.
In the same order, the values of `N#Cc1cnc(NC(=O)c2ccc(-c3nc([C@@H]4CC[C@H]5CCC(=O)N5C4)n4ccnc(N)c34)cc2)cc1C(F)(F)F` [Example 117, 4-{8-amino-3-[(6R,8aS)-3-oxooctahydroindolizin-6-yl]imidazo[1,5-a]pyrazin-1-yl}-N-[5-cyano-4-(trifluoromethyl)pyridin-2-yl]benzamide] are 102 nM and 2.1 nM.
In the same order, the values of `Nc1nccn2c([C@@H]3CC[C@H]4CCC(=O)N4C3)nc(-c3ccc(C(=O)Nc4cc(C(F)(F)F)ccn4)cc3O)c12` [Example 118, 4-{8-amino-3-[(6R,8aS)-3-oxooctahydroindolizin-6-yl]imidazo[1,5-a]pyrazin-1-yl}-3-hydroxy-N-[4-(trifluoromethyl)pyridin-2-yl]benzamide] are 832 nM and 0.58 nM.
For `Nc1nccn2c([C@@H]3CC[C@H]4CCC(=O)N4C3)nc(-c3ccc(C(=O)Nc4cc(C(F)(F)F)ccn4)nc3)c12` [Example 119, 5-{8-amino-3-[(6R,8aS)-3-oxooctahydroindolizin-6-yl]imidazo[1,5-a]pyrazin-1-yl}-N-[4-(trifluoromethyl)pyridin-2-yl]pyridine-2-carboxamide] the same measures were 451 nM and 3.3 nM.
As for `Cc1cc(C(F)(F)F)cc(NC(=O)c2ccc(-c3nc([C@@H]4CC[C@H]5CCC(=O)N5C4)n4ccnc(N)c34)cc2)n1` [Example 120, 4-{8-amino-3-[(6R,8aS)-3-oxooctahydroindolizin-6-yl]imidazo[1,5-a]pyrazin-1-yl}-N-[6-methyl-4-(trifluoromethyl)pyridin-2-yl]benzamide], the values for the IC50 in assay [1] and in assay [2] were 117 nM and 4.8 nM, respectively.

The record behind these values is US20140206681A1, “BTK INHIBITORS” (priority 2013, published 2014).
